Tests used:
P-glycoprotein = P-glycoprotein (Homo sapiens, UniProt P08183); assay: Rhodamine 123 transport assay across HCT-8 cell monolayers; details: for inhibition at 10 μM: human, HCT-8 cell monolayers in Transwell dishes, probe Rhodamine 123 (15 μM)
Description: The human ileocecal adenocarcinoma cell line HCT-8 was grown in RPMI-1640 medium supplemented with 10% horse serum, 1 mM sodium pyruvate and 0.01 mg/ml gentamicin. All cells were maintained in a humidified atmosphere with 5% CO2 at 37° C.
Rhodamine 123 transport was examined as previously described (Hunter J. et al., Simmons, Br. J. Cancer, 64: 437444 (1991); Kim A. E. et al., J. Pharm. Exp. Ther., 286: 1439-1445 (1998)) using HCT-8 cells. Particularly, cells were grown in 6 well Corning Transwell dishes until a tight monolayer was formed. Rh123 was added at a final concentration of 15 μM to the basal or apical compartments and 200 μl samples were taken at the indicated times from the opposite chamber. Fluorescence of Rh123 in the media samples was measured using a fluorescence plate reader with an excitation wavelength of 485 nm and an emission wavelength of 530 nm.

[1] = test system: MDR1-expressing NIH 3T3 cells; assay: Cytotoxicity (MTT) assay: modulation of drug cytotoxicity in multidrug resistant cells; details: compound 5 μM; 50 nM doxorubicin; 72 hours; MTT
Description: Cytotoxicity assays were performed with many of the compounds of Formula I to verify their usefulness as inhibitors of P-gp.
Parental NIH3T3 Swiss mouse embryo cell line was obtained from American Type Culture Collection and was grown in Dulbecco's Modified Eagles Medium supplemented with 4.5 g/L glucose, 10% fetal bovine serum, 2 mM L-glutamine, and 0.01 mg/ml gentamicin. […] All cells were maintained in a humidified atmosphere with 5% CO2 at 37° C.
Parental and MDR1-expressing NIH 3T3 cells were plated at a density of 2.5-3.0×10^3 cells/well in 96-well microtiter plates and were exposed to 50 nM of doxoriubicin, 7.5 nM vinblastine, 75 nM colchicine or 300 nM paclitaxel for 72 hours. Cell viability was determined with the colorimetric MTT (3-(4,5-dimethylthiazol-2-yl)-2,5-diphenyl tetrazolium) assay as previously described (Mosmann T., J. Immunol. Methods, 65: 55-63 (1983); Hansen M. B. et al., J. Immunol. Methods, 119: 203-210 (1989)) and the absorbance was measured at 570 nm.

[2] = compound 10 μM, Rh123 15 μM, HCT-8 cells
[3] = % Inhibition of R123 Transport, compound 10 μM, Rh123 15 μM, HCT-8 cells

Sequence of P-glycoprotein (P08183 whole entry): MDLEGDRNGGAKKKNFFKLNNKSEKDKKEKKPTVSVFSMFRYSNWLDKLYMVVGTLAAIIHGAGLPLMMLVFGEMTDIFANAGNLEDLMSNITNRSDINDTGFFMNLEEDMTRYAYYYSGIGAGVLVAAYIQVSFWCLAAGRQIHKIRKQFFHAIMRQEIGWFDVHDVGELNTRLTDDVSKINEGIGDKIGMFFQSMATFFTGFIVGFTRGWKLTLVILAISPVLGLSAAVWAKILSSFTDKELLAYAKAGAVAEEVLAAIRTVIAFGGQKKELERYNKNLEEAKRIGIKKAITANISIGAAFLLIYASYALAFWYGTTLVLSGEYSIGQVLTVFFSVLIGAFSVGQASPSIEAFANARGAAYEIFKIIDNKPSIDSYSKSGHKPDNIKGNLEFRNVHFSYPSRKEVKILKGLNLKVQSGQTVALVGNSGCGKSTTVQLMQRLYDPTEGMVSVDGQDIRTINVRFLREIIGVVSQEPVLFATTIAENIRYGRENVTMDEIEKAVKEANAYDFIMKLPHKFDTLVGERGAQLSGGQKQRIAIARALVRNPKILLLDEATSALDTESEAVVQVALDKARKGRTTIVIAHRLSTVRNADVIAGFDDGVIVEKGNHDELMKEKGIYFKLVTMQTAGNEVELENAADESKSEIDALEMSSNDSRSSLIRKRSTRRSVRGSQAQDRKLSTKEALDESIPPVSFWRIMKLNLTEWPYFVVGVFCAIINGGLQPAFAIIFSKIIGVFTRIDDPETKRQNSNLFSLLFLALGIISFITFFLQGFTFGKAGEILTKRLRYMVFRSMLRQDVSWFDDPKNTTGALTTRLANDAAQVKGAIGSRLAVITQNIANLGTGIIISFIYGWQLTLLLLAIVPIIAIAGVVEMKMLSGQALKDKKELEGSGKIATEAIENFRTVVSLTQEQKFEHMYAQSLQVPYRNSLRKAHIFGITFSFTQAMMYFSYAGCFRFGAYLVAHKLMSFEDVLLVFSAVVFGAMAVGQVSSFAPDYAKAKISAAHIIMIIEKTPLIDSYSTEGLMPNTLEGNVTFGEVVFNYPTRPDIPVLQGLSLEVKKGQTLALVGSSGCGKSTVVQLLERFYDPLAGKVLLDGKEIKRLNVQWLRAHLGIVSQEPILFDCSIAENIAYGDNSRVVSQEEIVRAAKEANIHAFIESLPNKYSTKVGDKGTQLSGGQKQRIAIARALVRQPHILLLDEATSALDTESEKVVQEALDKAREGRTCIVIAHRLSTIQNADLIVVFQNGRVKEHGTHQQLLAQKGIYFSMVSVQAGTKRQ

Row | Molecule | % Inhibition of R123 Transport (P-glycoprotein; [2]) | Modulation of Drug Resistance (percentage increase in doxorubicin cytotoxicity in the presence of the compounds versus in their absence) [1] | inhibition at 10 μM (P-glycoprotein; [3]) | inhibition at 10 μM (P-glycoprotein)
1 | COc1ccc(C2c3cc(OC)c(OC)cc3C(CCNS(=O)(=O)c3ccccc3)C2CNS(=O)(=O)c2ccccc2)cc1OC (stereo not drawn) [AV-223, N-{2-[(2-N-methyl)-benzenesulfonamide-3-(3,4-dimethoxyphenyl)-5,6-dimethoxy-indan-1-yl}-ethyl}-benzensulfonamide] | 74.50% | 36.55% | – | –
2 | CCCCC(CC)CN(CC(CC)CCCC)C(=O)CC1c2cc(OC)c(OC)cc2C(c2ccc(OC)c(OC)c2)C1C(=O)N(CC(CC)CCCC)CC(CC)CCCC (stereo not drawn) [AV-192, 1-{[bis(2-ethylhexyl)carbamoyl]methyl}-3-(3,4-dimethoxyphenyl)-5,6-dimethoxy-indan-2-carboxylic acid bis(2-ethylhexyl) amide] | – | 19.61% | 20.2% | –
3 | COc1ccc(C2c3cc(OC)c(OC)cc3C(CC(=O)N3CCN(C(=O)OC(C)(C)C)CC3)C2C(=O)N2CCN(C(=O)OC(C)(C)C)CC2)cc1OC (stereo not drawn) [AV-180, 4-{2-[3-(3,4-dimethoxyphenyl)-5,6-dimethoxy-2-(piperazine-1-carboxylic acid t-butyl ester)-indan-1-yl]-acetyl}-piperazine-1-carboxylic acid t-butyl ester] | 40.4% | 42.84% | – | –
4 | CCCCN(CCCC)C(=O)CC1c2cc(OC)c(OC)cc2C(c2ccc(OC)c(OC)c2)C1C(=O)N(CCCC)CCCC (stereo not drawn) [AV-190, 1-(3,4-dimethoxyphenyl)-3-dibutylcarbamoylmethyl-5,6-dimethoxy-indan-2-carboxylic acid dibutyl amide] | – | 65.35% | 52.2% | –
5 | COc1ccc(C2c3cc(OC)c(OC)cc3C(CC(=O)N3CCN(c4ccc(C(C)=O)cc4)CC3)C2C(=O)N2CCN(c3ccc(C(C)=O)cc3)CC2)cc1OC (stereo not drawn) [AV-163, 2-[2-[4-(4-acetylphenyl)-piperazin-1-carbonyl]-3-(3,4-dimethoxyphenyl)-5,6-dimethoxy-indan-1-yl]-1[4-(4-acetylphenyl)piperazine-1-yl]-ethanone] | – | 72.55% | 89.7% | –
6 | COCC1C(CCN2CCC(Cc3ccccc3)CC2)c2cc(OC)c(OC)cc2C1c1ccc(OC)c(OC)c1 (stereo not drawn) | – | 73.65% | – | 88.9%
7 | COc1ccc(C2c3cc(OC)c(OC)cc3C(CCN3CCN(c4ccccc4)CC3)C2CN2CCN(c3ccccc3)CC2)cc1OC (stereo not drawn) [AV-162, 2-[3-(3,4-dimethoxyphenyl)-5,6-dimethoxy-2-(4-phenylpiperazin-1-yl)methyl-indan-1-yl]-1-(4-phenylpiperazin-1-yl)-ethane] | – | 65.83% | 83.1% | –
8 | COCC1C(CCN2CCN(c3ccc(C(C)=O)cc3)CC2)c2cc(OC)c(OC)cc2C1c1ccc(OC)c(OC)c1 (stereo not drawn) [AV-203] | 77.9% | 84.65% | – | –
9 | COc1ccc(C2c3cc(OC)c(OC)cc3C(CCNC(=O)c3ccc(C(C)(C)C)cc3)C2CNC(=O)c2ccc(C(C)(C)C)cc2)cc1OC (stereo not drawn) [AV-259] | 84.87% | 3.9% | – | –
10 | COCC1C(CCOS(C)(=O)=O)c2cc(OC)c(OC)cc2C1c1ccc(OC)c(OC)c1 (stereo not drawn) [AV-177, methanesulfonic acid 2-[3-(3,4-dimethoxyphenyl)-5,6-dimethoxy-2-methoxymethyl-indan-1-yl] ethyl ester] | 9.4% | 40.32% | – | –
11 | COCC1C(CCN2CCN(c3ccccc3)CC2)c2cc(OC)c(OC)cc2C1c1ccc(OC)c(OC)c1 (stereo not drawn) [AV-198, 1-{-2-[3-(3,4-dimethoxyphenyl)-5,6-dimethoxy-2-methoxymethyl-indan-1-yl]-ethyl}-4-phenylpiperazine] | – | 58.65% | 84.7% | –
12 | COc1ccc(N2CCN(C(=O)CC3c4cc(OC)c(OC)cc4C(c4ccc(OC)c(OC)c4)C3C(=O)N3CCN(c4ccc(OC)cc4)CC3)CC2)cc1 (stereo not drawn) [AV-168, 2-{3-(3,4-dimethoxyphenyl)-5,6-dimethoxy-2-[4-(4-methoxyphenyl)-piperazin-1-carbonyl]-indan-1-yl}-1-[4-(4-methoxyphenyl)-1-yl]-ethanone] | 81.5% | 73.81% | – | –
13 | 2-{3-(3,4-dimethoxyphenyl)-5,6-dimethoxy-2-[4-(4-nitrophenyl)-piperazin-1-carbonyl]-indan-1-yl}-1-[4-(4-nitrophenyl)-1-yl]-ethanone [AV-196] | 64.4% | 41.47% | – | –
14 | COc1ccc(C2c3cc(OC)c(OC)cc3C(CC(=O)N3CCN(C(=O)OCc4ccccc4)CC3)C2C(=O)N2CCN(C(=O)OCc3ccccc3)CC2)cc1OC (stereo not drawn) [AV-179, 4-{2-[3-(3,4-dimethoxyphenyl)-5,6-dimethoxy-2-(piperazine-1-carboxylic acid benzyl ester)-indan-1-yl]-acetyl}-piperazine-1-carboxylic acid benzyl ester] | 87.7% | 58.07% | – | –
15 | COCC1C(CCN2CCN(c3ccc(F)cc3)CC2)c2cc(OC)c(OC)cc2C1c1ccc(OC)c(OC)c1 (stereo not drawn) [AV-201, 1-{-2-[3-(3,4-dimethoxyphenyl)-5,6-dimethoxy-2-methoxymethyl-indan-1-yl]-ethyl}-4-(4-fluorophenyl)-piperazine] | – | 66.44% | 83.8% | –
16 | CCCCCOc1ccc(C2c3cc(OCCCCC)c(OC)cc3C(CC(=O)N3CCN(c4ccccc4OCC)CC3)C2C(=O)N2CCN(c3ccccc3OCC)CC2)cc1OC (stereo not drawn) [AV-252, 2-[2-[4-(2-Ethoxy-phenyl)-piperazine-1-carbonyl]-6-methoxy-3-(3-methoxy-4-pentyloxy-phenyl)-5-pentyloxy-indan-1-yl]-1-[4-(2-ethoxy-phenyl)-piperazin-1-yl]ethanone] | – | −0.5% | 64.2% | –
17 | CCCCCCN(CCCCCC)C(=O)CC1c2cc(OC)c(OC)cc2C(c2ccc(OC)c(OC)c2)C1C(=O)N(CCCCCC)CCCCCC (stereo not drawn) [AV-193, 1-(3,4-dimethoxyphenyl)-3-dihexylcarbamoylmethyl-5,6-dimethoxy-indan-2-carboxylic acid dihexyl amide] | – | 25.20% | 11.8% | –
18 | CCCOc1ccc(C2c3cc(OCCC)c(OCCC)cc3C(CC(=O)N3CCN(c4ccccc4OCC)CC3)C2C(=O)N2CCN(c3ccccc3OCC)CC2)cc1OCCC (stereo not drawn) [AV-254, 2-{3-(3,4-Dipopoxy-phenyl)-2-[4-(2-ethoxy-phenyl)-piperazine-1-carbonyl]-5,6-dipropoxy-indan-1-yl}-1-[4-(2-ethoxy-phenyl)-piperazin-1-yl]-ethanone] | 18.70% | 4.1% | – | –

From patent US20020128231A1 (priority 2000, published 2002)
